From US9290570B2, “Pan-ELR+ CXC Chemokine Antibodies” (Eli Lilly and Company, priority 2013, dated 2016)

What was measured:
[1] = test system: SKOV3-Luc ovarian cancer cells; test: SKOV3-Luc ovarian cancer xenograft model; format: in vivo, mice; conditions: cisplatin 2.5 mg/kg, Antibody 1 20 mg/kg once a week intraperitoneal
Method: SKOV3-Luc is a human ovary cancer cell line that expresses firefly luciferase gene. SKOV3-Luc cells are often used in vivo to establish human ovarian adenocarcinoma tumor growth.
SKOV3-Luc ovarian cancer cells were mixed 1:1 with matrigel and implanted subcutaneously in the right rear flank of athymic nude female mice at 3.0×10^6 cells per injection. Mice were randomized into 4 groups at baseline according to tumor volume after the xenografts were grown to an average tumor volume of 200 mm^3 Mice received either control IgG4 antibody (2.5 mg/kg once a week), cisplatin (2.5 mg/kg once a week), Antibody 1 (20 mg/kg once a week), or a combination of cisplatin (2.5 mg·kg once a week) and Antibody 1 (20 mg/kg once a week) by intraperitoneal injection.

human CXCR2 = biological target: T1, human CXCR2 (Homo sapiens, UniProt P25025); test: U937-huCXCR2 FLIPR activity of wild type and mutant human CXCL8; format: cell-based; conditions: activity of the CXCL8 variant itself on U937-huCXCR2 cells
T1 construct: expressed in transfected cells; host or cells: U937 monocytic cell line, retrovirally transduced (U937-huCXCR2)
T1 sequence (P25025 1-360): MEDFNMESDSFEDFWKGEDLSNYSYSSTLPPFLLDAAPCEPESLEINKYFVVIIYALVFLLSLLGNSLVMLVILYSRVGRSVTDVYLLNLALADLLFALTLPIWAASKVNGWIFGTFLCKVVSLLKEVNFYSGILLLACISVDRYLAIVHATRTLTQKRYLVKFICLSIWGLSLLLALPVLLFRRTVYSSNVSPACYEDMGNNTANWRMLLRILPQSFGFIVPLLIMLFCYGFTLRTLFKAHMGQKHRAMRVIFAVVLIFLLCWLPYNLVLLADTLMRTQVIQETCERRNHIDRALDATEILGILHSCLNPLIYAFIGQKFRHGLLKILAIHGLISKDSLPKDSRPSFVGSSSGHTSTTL
Method: Wild type and mutant human CXCL8 are tested for biologic activity and for neutralization by Antibody 1 using the U937-huCXCR2 assay. U937-huCXCR2 is a monocytic cell line transduced with retrovirus for expression of human CXCR2. A description of the U937-huCXCR2 assay is found below under Neutralizing Assays.
CXCL8 mutants are serially diluted in Assay Buffer containing 0.2% BSA in wells of v-bottom 96-well polypropylene plates. Ligand concentrations are 3 times the final assay concentration (final assay concentrations range from 300 to 0.0051 nM). A cell plate and a ligand plate are loaded into a Fluorescent Imaging Plate Reader (FLIPR-3, Molecular Devices) programmed to transfer 50 μL of ligand to wells of the cell plate. Fluorescence is recorded at 1 second intervals for 90 seconds. The change in fluorescence [delta relative fluorescence units (DRFU), Max RFU-Min RFU] is calculated from images 10 to 90. DRFU versus log (ligand concentration) is plotted and EC50 values are determined by nonlinear regression using Graph Pad Prism. Assays are performed in triplicate over three assay plates.

Row | Compound | tumor growth inhibition compared to isotype control [1] | U937 FLIPR activity (EC50) (human CXCR2)
1 | N.N.[Cl][Pt][Cl] [Cisplatin, cisplatin] | did not show statistically significant tumor growth inhibition | 
2 | R6A: R6A point mutant of human CXCL8 (SEQ ID NO: 27) [Antibody R6A] |  | Not Active
